Drawing on a melting point compilation (Tetko et al.; mined from patent text by program, amines drawn as free bases though some values may be those of a salt), this text covers melting point for 88 compounds.

The term melting point denotes the temperature, or range, at which the solid turns liquid. `O=c1cc(N2CCOCC2)oc2cc(OS(=O)(=O)C(F)(F)F)ccc12` gave a melting point of 143 to 145 °C.
As for `COc1cc(-c2cnc3[nH]cc(I)c3n2)cc(OC)c1OC`, the figure is 230 to 232 °C; as for `COc1c(C(N)=O)sc(C(N)=O)c1N=NN(C)C`, 226 to 228 °C.
Next, `NC(c1ccc(Cl)cc1Cl)P(O)O` (stereo not drawn): 244 °C; `C[C@@H](NC(=O)[C@H](Cc1ccc(OC(C)(C)C)cc1)N(C)C(=O)OC(C)(C)C)C(=O)O`: 109 to 110 °C.
Next, `O=c1c2ccccc2ncn1CCN1CC=C(c2c[nH]c3ccccc23)CC1`: 132 °C.
Compound `COc1cc(F)c(-c2cncc(OC3SCC(OC(C)=O)C(OC(C)=O)C3OC(C)=O)c2)c(F)c1` (stereo not drawn) showed a melting point of 62 °C.
Next, `Cn1nc2nnsc2c1C#N`: 111 to 114 °C.
As for `CC(CO)(Oc1ccc(C(=O)c2ccc(Cl)cc2)cc1)C(=O)O` (stereo not drawn), the figure is 172 to 174 °C.
Next, `COc1ccc(S(=O)(=O)N(CC(N)=O)c2cc(Cl)c(Cl)cc2Cc2ccccc2Cl)cc1OC`: 163 °C; `COc1cc(OC)c2ncn(/C=C/C(=O)O)c(=O)c2c1`: 305 to 307 °C; `Cc1nc(CO)cn1Cc1ccccc1`: 140 to 146 °C.
In the case of `Nc1cc(=O)n(-c2ccccc2)[nH]1`, the melting point lay in the range of 218 to 219 °C.
In the case of `CNC(c1ccnc(F)c1)C(O)c1cccc(C(F)(F)F)c1` (stereo not drawn), the melting point was in the range of 99 to 102 °C.
Next, `O=C(O)COc1ccc(SCc2cccc(OCc3ccc(C(F)(F)F)cc3)c2)c2c1CCCO2`: 113 to 115 °C.
As for `CN(C)CC1CCc2cc(OC(=O)c3ccc(-c4ccccc4)cc3)ccc2C1` (stereo not drawn), the figure is 85 to 86 °C; as for `Cc1ccc(S(=O)(=O)Nc2ccccc2C#N)cc1`, 134 to 136 °C; as for `CCCCCCSC(=S)N1Cc2[nH]c3ccccc3c2CC1CO` (stereo not drawn), 102 to 106 °C.
As for `NC(=O)c1nc(-c2cccc(O)c2)nc2c1[nH]c(=O)n2CC1CCCCC1`, the figure is 368 to 370 °C; as for `CC(=O)Nc1c(C(=O)c2ncccc2C)[nH]c2cc(Cl)ccc12`, 173 to 175 °C.
For the compound `CC(C(=O)O)c1ccc(N=c2sccn2C)c(Cl)c1` (stereo not drawn), the melting point fell in the range of 132 to 133 °C.
As for `COCCOCc1c(CN(C)CC(O)c2ccc(C#N)s2)sc2c(=O)c(C(=O)NCc3ccc(Cl)cc3)cn(C)c12` (stereo not drawn), the figure is 163 to 164 °C.
As for `Cc1ccc(N2CCNCC2)c2c1CC[C@@H](NC(=O)c1ccc(N3CCOCC3)cc1)C2`, the figure is 207 to 210 °C; as for `CCCCNC(=O)n1sc(OCC)nc1=O`, 54 °C.
Next, `COC1=C(c2ccccc2)C(CC(=O)O)OC1=O` (stereo not drawn): 159 to 160 °C; `CCNc1cccnc1N(CC)CC1CCN(C(=O)c2ccc[nH]2)CC1`: 109 to 110 °C; `ON=C(c1ccc(Cl)cc1)c1ccc(Cl)cc1Cl`: 98 to 100 °C.
For `Cn1cc(-c2ccccc2)c(=O)c(-c2cccc(CC3CCCCC3)c2)c1`, the melting point lay within 147 to 148 °C.
Consider `CON1CCC2(CC1)NC(=O)C(c1c(C)cc(C#C[Si](C)(C)C)cc1C)=C2O`, for which the melting point is greater than 240 °C.
Next, `c1ccc(C(CCCc2c[nH]cn2)c2ccccc2)cc1`: 204 to 206 °C.
Next, `O=c1oc2c(c(O)c1C(c1ccccc1)C1CC1)CCCCCCCC2` (stereo not drawn): 87.6 to 90.4 °C; `CCc1cccc(C(C)C)c1NC(=O)NCC1(c2ccccc2)CCCCC1`: 178 to 180 °C; `CN(C)CCc1c[nH]c2ccc(CCC(=O)NCc3ccc(NS(C)(=O)=O)cc3)cc12`: 78 to 82 °C.
Next, `Cc1nc(CN(C)C)n(-c2ccc(Cl)cc2C(=O)c2ccccc2Cl)c1CN1C(=O)c2ccccc2C1=O`: 121 to 150 °C; `CCCc1ccc(CCNC(C)=O)cc1`: 52 °C.
`C[C@@H](Nc1ncnc2[nH]c(-c3ccc(CNC(=O)CCN4CCCCC4)cc3)cc12)c1ccccc1`: the melting point was found to be 140 °C.
For `CS(=O)c1nc(-c2cc(C(C)(C)C)c(O)c(C(C)(C)C)c2)c[nH]1` (stereo not drawn), the melting point lay within 106 to 108 °C.
Next, `CC(C)NCC(O)COc1ccc(OCCOCC2CCC2)cc1` (stereo not drawn): 56 °C; `CCOP(=O)(OCC)C1CCc2c(-n3cccc3)c(C(F)(F)F)cc3[nH]c(=O)c(=O)n1c23` (stereo not drawn): 268 °C; `COc1ccc(OC)c(N2Cc3[nH]c(=O)[nH]c(=O)c3C2)c1`: 308 to 310 °C.
Next, `CC(C)c1cccc(C(C)C)c1NC(=O)CNC(c1ccccc1)c1cccc(CO)c1` (stereo not drawn): 57 to 62 °C; `O=C(Nc1ccc(-n2nc(C(F)(F)F)cc2C(F)(F)F)cc1F)c1ccc(F)cc1F`: 66 to 67 °C; `N#Cc1cccc(-c2ccc(=O)n(Cc3cccc(-c4ncc(Br)cn4)c3)n2)c1`: 178 to 179 °C.
Next, `CCCCC[C@H]1CC[C@H](c2ccc(-c3ccc(CO)cc3)cc2)CC1`: 180 °C; `CS(=O)(=O)c1cccc(NC(=O)c2cnn3c(C(F)(F)F)cc(-c4ccc(F)c(F)c4)nc23)c1`: 256 °C; `CC(=O)NC[C@H]1CN(c2ccc(N3CCC(O)(C(N)=O)CC3)c(F)c2)C(=O)O1`: 238 to 240 °C.
For `O=C1CCC(c2ccc(F)cc2)CC1`, the melting point lay within 104 to 106 °C.
As for `COC(=O)c1cc(C)c(C(=O)O)c(C)c1`, the figure is 191 to 192 °C; as for `Brc1cccc(Sc2ccc3ccccc3c2)c1`, 68 to 70 °C.
Next, `CC(=O)Nc1ccc(Cl)cc1S(=O)(=O)CC#N`: 174 °C; `NCCc1ccc(N2C(=O)N(c3ccc(Cl)cc3Cl)Cc3cnc(Nc4ccccc4)nc32)cc1`: 117 to 121 °C.
As for `COc1ccccc1NC(=O)c1ccncc1`, the figure is 79 to 80 °C; as for `O=c1nc(-c2cccc(Cl)c2)c2cc(C(c3ccc(Cl)cc3)n3ccnc3-c3ccccc3)ccc2[nH]1` (stereo not drawn), 170 °C; as for `C[Si](C)(C)CNc1ccc([N+](=O)[O-])cc1`, 120 °C.
Compound `Cc1cccc(N2CCCCC2)c1NC(N)=S` returned a melting point of 197 to 198 °C.
In turn, `FC(F)(F)c1cc(-c2ccc(Cl)c(Cl)c2)nc2c(-c3ccncc3)cnn12` returned a melting point of 260 °C.
Next, `O=C(OCc1ccccc1)N1CCc2c(sc3nc(CN4C(=O)CCC4=O)c(Cl)c(-c4ccc(OCC(F)(F)F)cc4)c23)C1`: 190 to 191 °C.
As for `CCCCCCCCCCS(=O)(=O)Oc1c(I)cc(I)cc1I`, the figure is 71 to 72 °C.
Next, `CC(=O)Oc1c(C)c(C)c2c(c1C)C(c1ccc(F)cc1)C(C)(C)O2` (stereo not drawn): 86 to 87 °C; `CCOC(=O)c1cnn(C)c1C(=O)Nc1ccn2nc(C(C)C)nc2c1`: 175 to 177 °C.
Turning to `O=C(O)C=C1SC(=Nc2cccc3ccccc23)N(c2cccc3ccccc23)C1=O`, the melting point lay within 250 to 253 °C.
`Cn1ncc2c(c1=O)S(=O)CCNC2Cc1ccccc1` (stereo not drawn): the melting point was 162 to 163 °C.
Next, `COC(=O)c1c(C(C)C)nc2c(c1-c1ccc(F)cc1)CCCN2`: 168 to 170 °C; `COc1ccc(C(=O)c2ccccc2F)c(O)c1Br`: 127 to 129 °C; `COc1ccc(OC)c2c(=O)c3c(Cl)ccc([N+](=O)[O-])c3sc12`: 222 to 228 °C.
Compound `CCCOc1ccc(S(=O)(=O)NCC2(NCC)CCCCCC2)cc1-c1nc2c([nH]1)c1nncn1c(=O)n2CCC` showed a melting point of 203 °C.
Next, `CSc1nccc(-c2nc(=O)c3ccccc3s2)n1`: 224 °C; `Cc1ccnc(C(=O)c2[nH]c3cc(Cl)ccc3c2NC(=O)CCN(C)C)c1`: 170 to 171 °C.
For the compound `CC(C)(C)CNc1nc(C(=O)C(=O)c2ccccc2)ccc1[N+](=O)[O-]`, the melting point was in the range of 88 to 90 °C.
On to `CCn1c(=O)cc(C)c2ccc(OCCCN3CCC(NC(=O)c4ccccc4)CC3)cc21`, for which the melting point is 164 to 165 °C.
As for `CCCCCCN(CCCCCC)CC1CCN(C(=O)Oc2ccc(Oc3ccccc3)cc2)CC1`, the figure is 46 to 47 °C.
As to `O=C1C(=Cc2ccccc2)N2CCC1C2` (stereo not drawn), the melting point fell in the range of 61 to 63 °C.
Next, `N#Cc1c(N)[nH]c(Br)c1C#N`: greater than 210 °C.
As for `CN(C(=O)c1ccc(Cl)c(Cl)c1)c1ccc(Cl)cc1CCC(=O)O`, the figure is 159 to 160 °C; as for `CCC(C)(C)c1ccc(Oc2ccc(C(F)(F)F)cc2NC(=O)Nc2cc(C(F)(F)F)cc(C(F)(F)F)c2)c(C(=O)O)c1`, 238 to 240 °C; as for `O=C(Nc1cccc2c1C(=O)c1c-2n[nH]c1C1CCN(C(=O)C2CCCNC2)CC1)NN1CCOCC1` (stereo not drawn), 169 to 170 °C.
In the case of `CCN1CCc2cc(OC)c(OC)cc2C1C1CC(C(=O)O)CCC12c1cc(OC)c(OC)cc1CCN2CC` (stereo not drawn), the melting point is 124 to 126 °C.
As for `CCOC(=O)c1ccc2cc(N)ccn2c1=O`, the figure is greater than 250 °C; as for `COc1cc(OC)c2c(=O)[nH]c(-c3cccc(N4CCN(C(C)C(N)=O)CC4)n3)nc2c1` (stereo not drawn), 149 to 150 °C.
As for `CCCCCCc1ccc(-c2ccc(C(=O)Oc3ccc(C(=O)O)c(Cl)c3)cc2)cc1`, the figure is 164 to 166 °C.
Next, `Cc1cccc(/C=C/c2nc(COc3ccc(CCCCn4ccnc4CC(O)CO)cc3)co2)c1` (stereo not drawn): 102 to 104 °C; `Cc1ncc([N+](=O)[O-])n1CCN1C(=O)c2cccc([N+](=O)[O-])c2C1=O`: 175 to 176 °C; `C#Cc1cnc(C2=NC(C)(C(C)C)C(=O)N2)c(C(=O)O)c1` (stereo not drawn): 190 to 195 °C.
`O=c1ccc(-c2ccc(OC(F)F)c(OCC3CC3)c2)n[nH]1` registered a melting point of 142 °C.
As for `c1ccc(CN2CCN(c3ccnc4ccccc34)CC2)cc1`, the figure is 105 to 106 °C; as for `O=C1C2=CSCCN2C(=O)N1c1ccc(Cl)cc1`, 155 to 158 °C.
Next, `Cc1ccc(C#CC(C)N(O)C(N)=O)cc1` (stereo not drawn): 144 °C; `NC(=O)CNC(=O)c1cccc(-c2ccc(Cl)c3cc(Cc4ccc(F)c(F)c4)sc23)c1`: 188 to 189 °C.
